Measurements as given in ChEMBL document CHEMBL2424552, “Cytotoxic effect of novel dehydroepiandrosterone derivatives on different cancer cell lines” (2013).

Columns and labels:
Assay type in all cases: functional
[1] = test system: SK-LU-1; assay: Growth inhibition of human SKLU1 cells at 50 uM after 48 hrs by SRB assay relative to control; conditions: SK-LU-1, 48 h, read-out: GI
[2] = test system: MCF7; assay: Growth inhibition of human MCF7 cells at 50 uM after 48 hrs by SRB assay relative to control; conditions: MCF7, 48 h, read-out: GI
[3] = test system: PC-3; assay: Growth inhibition of human PC3 cells at 50 uM after 48 hrs by SRB assay relative to control; conditions: PC-3, 48 h, read-out: GI

C[C@]12CC[C@H](OC(=O)c3ccc([N+](=O)[O-])cc3)CC1=CC[C@@H]1[C@@H]2CC[C@]2(C)C(n3cccn3)=C(C=O)C[C@@H]12
inhibition of growth at 50 µM [1]: 7.5% | inhibition of growth at 50 µM [2]: 20.2% | inhibition of growth at 50 µM [3]: 16.7%

C[C@]12CC[C@H](OC(=O)c3ccc(Cl)cc3)CC1=CC[C@@H]1[C@@H]2CC[C@]2(C)C(n3cccn3)=C(C=O)C[C@@H]12
inhibition of growth at 50 µM [1]: 20.7% | inhibition of growth at 50 µM [2]: 32.4% | inhibition of growth at 50 µM [3]: 24.6%

C[C@]12CC[C@H](OC(=O)c3ccc(C(F)(F)F)cc3)CC1=CC[C@@H]1[C@@H]2CC[C@]2(C)C(n3cccn3)=C(C=O)C[C@@H]12
inhibition of growth at 50 µM [1]: 73.3% | inhibition of growth at 50 µM [2]: 0% | inhibition of growth at 50 µM [3]: 78.2%

Cc1ccc(C(=O)O[C@H]2CC[C@@]3(C)C(=CC[C@@H]4[C@@H]3CC[C@]3(C)C(n5cncn5)=C(C=O)C[C@@H]43)C2)cc1
inhibition of growth at 50 µM [1]: 68% | inhibition of growth at 50 µM [2]: 48.7% | inhibition of growth at 50 µM [3]: 3.1%

C[C@]12CC[C@H](OC(=O)c3ccc(Br)cc3)CC1=CC[C@@H]1[C@@H]2CC[C@]2(C)C(n3cccn3)=C(C=O)C[C@@H]12
inhibition of growth at 50 µM [1]: 17.4% | inhibition of growth at 50 µM [2]: 18.5% | inhibition of growth at 50 µM [3]: 3.7%

C[C@]12CC[C@H](OC(=O)c3ccc(C(F)(F)F)cc3)CC1=CC[C@@H]1[C@@H]2CC[C@]2(C)C(n3cncn3)=C(C=O)C[C@@H]12
inhibition of growth at 50 µM [1]: 89.1% | inhibition of growth at 50 µM [2]: 100% | inhibition of growth at 50 µM [3]: 100%

C[C@]12CC[C@H](OC(=O)c3ccccc3)CC1=CC[C@@H]1[C@@H]2CC[C@]2(C)C(n3cncn3)=C(C=O)C[C@@H]12
inhibition of growth at 50 µM [1]: 39.7% | inhibition of growth at 50 µM [2]: 33.5% | inhibition of growth at 50 µM [3]: 21.8%

C[C@]12CC[C@H](OC(=O)C3CCC3)CC1=CC[C@@H]1[C@@H]2CC[C@]2(C)C(n3cncn3)=C(C=O)C[C@@H]12
inhibition of growth at 50 µM [1]: 27% | inhibition of growth at 50 µM [2]: 16.5% | inhibition of growth at 50 µM [3]: 0%

C[C@]12CC[C@H](OC(=O)C3CCCCCC3)CC1=CC[C@@H]1[C@@H]2CC[C@]2(C)C(n3cncn3)=C(C=O)C[C@@H]12
inhibition of growth at 50 µM [1]: 94.7% | inhibition of growth at 50 µM [2]: 78% | inhibition of growth at 50 µM [3]: 36.8%

C[C@]12CC[C@H](OC(=O)c3ccc(I)cc3)CC1=CC[C@@H]1[C@@H]2CC[C@]2(C)C(n3cccn3)=C(C=O)C[C@@H]12
inhibition of growth at 50 µM [1]: 93.5% | inhibition of growth at 50 µM [2]: 96.8% | inhibition of growth at 50 µM [3]: 58.4%

C[C@]12CC[C@H](OC(=O)c3ccc([N+](=O)[O-])cc3)CC1=CC[C@@H]1[C@@H]2CC[C@]2(C)C(n3cncn3)=C(C=O)C[C@@H]12
inhibition of growth at 50 µM [1]: 100% | inhibition of growth at 50 µM [2]: 100% | inhibition of growth at 50 µM [3]: 85.7%

C[C@]12CC[C@H](OC(=O)C3CCCCC3)CC1=CC[C@@H]1[C@@H]2CC[C@]2(C)C(n3cncn3)=C(C=O)C[C@@H]12
inhibition of growth at 50 µM [1]: 24.9% | inhibition of growth at 50 µM [2]: 11% | inhibition of growth at 50 µM [3]: 0%

C[C@]12CC[C@H](OC(=O)c3ccc(F)cc3)CC1=CC[C@@H]1[C@@H]2CC[C@]2(C)C(n3cccn3)=C(C=O)C[C@@H]12
inhibition of growth at 50 µM [1]: 5.5% | inhibition of growth at 50 µM [2]: 50.7% | inhibition of growth at 50 µM [3]: 20.5%

C[C@]12CC[C@H](OC(=O)c3ccc(C#N)cc3)CC1=CC[C@@H]1[C@@H]2CC[C@]2(C)C(n3cccn3)=C(C=O)C[C@@H]12
inhibition of growth at 50 µM [1]: 22.5% | inhibition of growth at 50 µM [2]: 81.2% | inhibition of growth at 50 µM [3]: 30.4%

COc1ccc(C(=O)O[C@H]2CC[C@@]3(C)C(=CC[C@@H]4[C@@H]3CC[C@]3(C)C(n5cccn5)=C(C=O)C[C@@H]43)C2)cc1
inhibition of growth at 50 µM [1]: 80% | inhibition of growth at 50 µM [2]: 100% | inhibition of growth at 50 µM [3]: 51.5%

C[C@]12CC[C@H](OC(=O)c3ccc(C#N)cc3)CC1=CC[C@@H]1[C@@H]2CC[C@]2(C)C(n3cncn3)=C(C=O)C[C@@H]12
inhibition of growth at 50 µM [1]: 89.9% | inhibition of growth at 50 µM [2]: 100% | inhibition of growth at 50 µM [3]: 100%

C[C@]12CC[C@H](OC(=O)c3ccccc3)CC1=CC[C@@H]1[C@@H]2CC[C@]2(C)C(n3cccn3)=C(C=O)C[C@@H]12
inhibition of growth at 50 µM [1]: 5.8% | inhibition of growth at 50 µM [2]: 32.6% | inhibition of growth at 50 µM [3]: 31.4%

COc1ccc(C(=O)O[C@H]2CC[C@@]3(C)C(=CC[C@@H]4[C@@H]3CC[C@]3(C)C(n5cncn5)=C(C=O)C[C@@H]43)C2)cc1
inhibition of growth at 50 µM [1]: 9.2% | inhibition of growth at 50 µM [2]: 23% | inhibition of growth at 50 µM [3]: 0%

CC(=O)N1CCN(c2ccc(OCC3COC(Cn4ccnc4)(c4ccc(Cl)cc4Cl)O3)cc2)CC1 (centres undefined) [KETOCONAZOLE]
inhibition of growth at 50 µM [1]: 73.4% | inhibition of growth at 50 µM [2]: 95.2% | inhibition of growth at 50 µM [3]: 88.5%

C[C@]12CC[C@H](O)CC1=CC[C@@H]1[C@@H]2CC[C@]2(C)C(n3cccn3)=C(C=O)C[C@@H]12
inhibition of growth at 50 µM [1]: 100% | inhibition of growth at 50 µM [2]: 41.6% | inhibition of growth at 50 µM [3]: 100%

Cc1ccc(C(=O)O[C@H]2CC[C@@]3(C)C(=CC[C@@H]4[C@@H]3CC[C@]3(C)C(n5cccn5)=C(C=O)C[C@@H]43)C2)cc1
inhibition of growth at 50 µM [1]: 8.5% | inhibition of growth at 50 µM [2]: 0% | inhibition of growth at 50 µM [3]: 0%

C[C@]12CC[C@H](OC(=O)C3CCCC3)CC1=CC[C@@H]1[C@@H]2CC[C@]2(C)C(n3cncn3)=C(C=O)C[C@@H]12
inhibition of growth at 50 µM [1]: 0% | inhibition of growth at 50 µM [2]: 0% | inhibition of growth at 50 µM [3]: 23.8%

C[C@]12CC[C@H](OC(=O)C3CC3)CC1=CC[C@@H]1[C@@H]2CC[C@]2(C)C(n3cncn3)=C(C=O)C[C@@H]12
inhibition of growth at 50 µM [1]: 100% | inhibition of growth at 50 µM [2]: 100% | inhibition of growth at 50 µM [3]: 88.7%
